pIC50, pKi: −log10 of the molar value. Values joined by “and” are separate entries in the source; they are usually repeats but may differ in a detail not shown here. Equal entries are not always repeated. Where two headings read alike, the source gives them in different places.
Tests used:
[1] = target: T1, CYP3A4 (Homo sapiens, UniProt P08684); conditions: human liver microsomes; cited from earlier work
[2] = target: T2, CYP2C9 (Homo sapiens, UniProt P11712); parameters: incubated with human liver microsomes (0.1 mg/mL); tissue Corning Life Sciences 452161; host or cells: pooled human liver microsomes; conditions: cited from earlier work
[3] = target: T3, CYP2B6 (Homo sapiens, UniProt P20813); assay: CYP2B6-catalyzed bupropion hydroxylation, LC-MS/MS; format: in vitro ADME; conditions: human liver microsomes
T3 construct: pooled human liver microsomes (0.2 mg/mL), 50 μM bupropion; tissue Corning Life Sciences 452161; host or cells: pooled human liver microsomes
T3 sequence (P20813 1-491): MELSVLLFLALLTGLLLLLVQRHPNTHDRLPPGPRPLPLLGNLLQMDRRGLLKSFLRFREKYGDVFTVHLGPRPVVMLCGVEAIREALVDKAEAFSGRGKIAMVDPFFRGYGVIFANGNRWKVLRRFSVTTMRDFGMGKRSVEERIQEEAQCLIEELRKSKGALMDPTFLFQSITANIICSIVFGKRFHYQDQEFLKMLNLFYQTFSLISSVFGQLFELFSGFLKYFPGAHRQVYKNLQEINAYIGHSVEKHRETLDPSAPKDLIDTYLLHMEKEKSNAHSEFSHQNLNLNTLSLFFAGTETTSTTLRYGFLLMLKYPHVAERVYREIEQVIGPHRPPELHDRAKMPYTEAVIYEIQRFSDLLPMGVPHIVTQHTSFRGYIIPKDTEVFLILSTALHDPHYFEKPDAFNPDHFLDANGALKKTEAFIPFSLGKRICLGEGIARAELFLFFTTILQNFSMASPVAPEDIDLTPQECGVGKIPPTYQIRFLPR
Method: After 3 min pre-incubation at 37 °C, the reaction mixtures were incubated with the addition of NADPH in a shaking water bath for 15 min at 37 °C. The reaction was stopped by adding 100 μL of ice-cold d9-1′-hydroxybufuralol (internal standard) in methanol. The mixtures were centrifuged at 13,000× g for 4 min at 4 °C. All incubations were performed in triplicate, and the average values were used for the subsequent calculations. […] Then, the reaction mixtures were incubated with the addition of NADPH and bupropion for 15 min at 37 °C. The control reaction was performed by the addition of acetonitrile instead of the test compounds. Hydroxybupropion concentrations were quantified using the LC-MS/MS method described above; the SRM transitions for hydroxybupropion and d9-1′-hydroxybufuralol were 256.1 > 238.0 and 287.2 > 187.0, respectively.
The IC50 values were calculated using SigmaPlot ver.

[4] = target: T4, CYP2C8 (Homo sapiens, UniProt P10632)
T4 sequence (P10632 1-490): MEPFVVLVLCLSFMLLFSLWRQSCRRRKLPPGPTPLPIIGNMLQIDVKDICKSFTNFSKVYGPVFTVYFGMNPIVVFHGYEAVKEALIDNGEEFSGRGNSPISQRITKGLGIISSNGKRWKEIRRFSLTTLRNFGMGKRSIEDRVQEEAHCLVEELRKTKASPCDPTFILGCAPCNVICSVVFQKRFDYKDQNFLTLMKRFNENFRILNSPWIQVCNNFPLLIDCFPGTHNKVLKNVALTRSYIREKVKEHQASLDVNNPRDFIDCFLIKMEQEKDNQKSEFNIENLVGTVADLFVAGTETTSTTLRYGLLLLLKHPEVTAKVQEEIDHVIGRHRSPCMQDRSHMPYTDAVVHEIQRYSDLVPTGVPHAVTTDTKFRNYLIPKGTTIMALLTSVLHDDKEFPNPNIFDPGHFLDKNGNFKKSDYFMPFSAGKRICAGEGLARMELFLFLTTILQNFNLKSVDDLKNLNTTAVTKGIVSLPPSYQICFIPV
Method: (§1) After 3 min pre-incubation at 37 °C, the reaction mixtures were incubated for 15 min at 37 °C with the addition of NADPH in a shaking water bath. The reaction was stopped by adding 100 μL of ice-cold methanol containing internal standards (d9-1′-hydroxybufuralol for 1′-hydroxybufuralol, 4′-hydroxydiclofenac, 7-hydroxycoumarin, 1′-hydroxymidazolam, and 4′-hydroxymephenytoin; ^13C2, ^15N-acetaminophen for acetaminophen and N-desethylamodiaquine). The mixtures were centrifuged at 13,000× g for 4 min at 4 °C. All assays were performed in triplicate and the average values were used for the subsequent calculations. […] Then, the reaction mixtures were incubated with addition of the seven-CYP probe substrate cocktail for 15 min at 37 °C. The control reaction was performed by adding acetonitrile instead of the test compounds.
(§2) Seven metabolites were simultaneously determined using a tandem mass spectrometer (TSQ Quantum Access; Thermo Scientific, San Jose, CA, USA) equipped with an electrospray ionization (ESI) source coupled to a NANOSPACE SI-2 LC system (Shiseido, Tokyo, Japan). The column and autosampler temperatures were 50 and 6 °C, respectively. The ESI source settings for the ionization of metabolites were as follows: polarity, positive ion mode; capillary voltage, 4200 V; capillary temperature, 330 °C; vaporizer temperature, 350 °C; auxiliary gas pressure, 15 psi; and sheath gas pressure, 35 psi. […] Analytical data were processed using Xcalibur™ software (Thermo Scientific, San Jose, CA, USA).
(§3) The IC50 values were calculated using SigmaPlot ver. 11.0 (Systat Software, Inc., San Jose, CA, USA).

[5] = target: T5, CYP2C19 (Homo sapiens, UniProt P33261)
Method: as §1, §2, §3

[6] = target: T6, CYP1A2 (Homo sapiens, UniProt P05177); conditions: microsomes
T6 sequence (P05177 1-516): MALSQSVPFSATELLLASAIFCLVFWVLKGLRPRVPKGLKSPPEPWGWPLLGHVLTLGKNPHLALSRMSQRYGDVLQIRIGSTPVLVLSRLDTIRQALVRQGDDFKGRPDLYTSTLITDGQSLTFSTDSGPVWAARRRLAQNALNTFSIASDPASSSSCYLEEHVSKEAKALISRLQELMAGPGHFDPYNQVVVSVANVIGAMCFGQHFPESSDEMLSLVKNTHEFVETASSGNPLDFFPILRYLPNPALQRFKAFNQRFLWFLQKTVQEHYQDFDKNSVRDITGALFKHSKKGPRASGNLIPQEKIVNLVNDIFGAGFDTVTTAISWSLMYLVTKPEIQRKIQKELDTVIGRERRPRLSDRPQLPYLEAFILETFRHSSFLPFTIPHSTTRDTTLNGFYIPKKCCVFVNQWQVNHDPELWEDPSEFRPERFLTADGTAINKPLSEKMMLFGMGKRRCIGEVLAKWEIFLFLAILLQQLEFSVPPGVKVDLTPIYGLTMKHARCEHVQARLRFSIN
Method: as §1, §2, §3

[7] = target: T2, CYP2C9; conditions: microsomes
Method: as §1, §2, §3

[8] = target: T7, CYP2D6 (Homo sapiens, UniProt P10635); conditions: microsomes
Method: as §1, §2
(§4) The IC50 values were calculated using SigmaPlot ver. 11.0 (Systat Software, Inc., San Jose, CA, USA). Ki, kinact, and the inhibition mode were determined using Enzyme Kinetics ver. 1.1 (Systat Software, Inc.).

[9] = target: T1, CYP3A4; conditions: microsomes
Method: as §1, §2, §4

[10] = target: T8, CYP2A6 (Homo sapiens, UniProt P11509); assay: CYP2A6-catalyzed coumarin 7-hydroxylation, substrate cocktail, LC-MS/MS; conditions: human liver microsomes
T8 sequence (P11509 1-494): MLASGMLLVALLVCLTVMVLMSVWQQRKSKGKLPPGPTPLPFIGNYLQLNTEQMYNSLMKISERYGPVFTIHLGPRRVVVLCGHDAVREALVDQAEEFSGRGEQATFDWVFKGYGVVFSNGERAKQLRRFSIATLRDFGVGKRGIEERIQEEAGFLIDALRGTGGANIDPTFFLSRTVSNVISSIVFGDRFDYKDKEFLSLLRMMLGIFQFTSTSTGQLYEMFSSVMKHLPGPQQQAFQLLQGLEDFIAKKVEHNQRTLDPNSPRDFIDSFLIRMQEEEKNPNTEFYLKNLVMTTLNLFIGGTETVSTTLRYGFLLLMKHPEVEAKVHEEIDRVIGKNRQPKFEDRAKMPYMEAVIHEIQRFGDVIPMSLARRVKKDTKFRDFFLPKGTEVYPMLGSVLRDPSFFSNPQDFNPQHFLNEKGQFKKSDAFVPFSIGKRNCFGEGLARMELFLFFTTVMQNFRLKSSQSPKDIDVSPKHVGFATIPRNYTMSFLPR
Method: as §1, §2, §3

[11] = test system: eight CYP enzymes (CYPs 1A2, 2A6, 2B6, 2C8, 2C9, 2C19, 2D6, and 3A4); assay: IC50 shift after 30-min pre-incubation with NADPH, panel of eight CYP enzymes; conditions: human liver microsomes
Method: as §1
After 3 min pre-incubation at 37 °C, the reaction mixtures were incubated with the addition of NADPH in a shaking water bath for 15 min at 37 °C. The reaction was stopped by adding 100 μL of ice-cold d9-1′-hydroxybufuralol (internal standard) in methanol. The mixtures were centrifuged at 13,000× g for 4 min at 4 °C. All incubations were performed in triplicate, and the average values were used for the subsequent calculations. […] Then, the reaction mixtures were incubated with the addition of NADPH and bupropion for 15 min at 37 °C. […]

[12] = target: T6, CYP1A2; assay: CYP1A2-catalyzed phenacetin O-deethylation, substrate cocktail, LC-MS/MS; conditions: human liver microsomes
Method: as §1, §2, §3

[13] = target: T4, CYP2C8; assay: CYP2C8-catalyzed amodiaquine N-deethylation, substrate cocktail, LC-MS/MS; conditions: human liver microsomes
Method: as §1, §2, §3

[14] = target: T7, CYP2D6; assay: CYP2D6-catalyzed bufuralol 1′-hydroxylation, substrate cocktail, LC-MS/MS; conditions: human liver microsomes
Method: as §1, §2, §4

[15] = target: T1, CYP3A4; assay: CYP3A4-catalyzed midazolam 1′-hydroxylation, substrate cocktail, LC-MS/MS; conditions: human liver microsomes
Method: as §1, §2, §4

[16] = target: T2, CYP2C9; assay: CYP2C9-catalyzed diclofenac 4′-hydroxylation, substrate cocktail, LC-MS/MS; conditions: human liver microsomes
Method: as §1, §2, §3

[17] = target: T5, CYP2C19; assay: CYP2C19-catalyzed [S]-mephenytoin 4′-hydroxylation, substrate cocktail, LC-MS/MS; conditions: human liver microsomes
Method: as §1, §2, §3

[18] = target: T5, CYP2C19; conditions: microsomes
Method: as §1, §2, §3

T7 sequence (P10635 whole entry): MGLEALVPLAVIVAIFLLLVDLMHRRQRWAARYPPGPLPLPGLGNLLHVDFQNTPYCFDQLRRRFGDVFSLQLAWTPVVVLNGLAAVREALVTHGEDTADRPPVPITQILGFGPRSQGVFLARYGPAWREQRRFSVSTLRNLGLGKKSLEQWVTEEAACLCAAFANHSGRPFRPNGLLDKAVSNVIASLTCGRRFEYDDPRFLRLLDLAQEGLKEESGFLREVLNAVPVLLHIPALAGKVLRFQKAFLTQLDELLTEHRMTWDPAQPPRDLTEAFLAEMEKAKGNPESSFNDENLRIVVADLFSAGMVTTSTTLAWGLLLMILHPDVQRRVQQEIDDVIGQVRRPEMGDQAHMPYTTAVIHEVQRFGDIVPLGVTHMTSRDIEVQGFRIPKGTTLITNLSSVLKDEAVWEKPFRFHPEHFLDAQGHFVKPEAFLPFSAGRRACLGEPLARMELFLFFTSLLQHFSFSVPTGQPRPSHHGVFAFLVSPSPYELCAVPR
T2 sequence (P11712 whole entry): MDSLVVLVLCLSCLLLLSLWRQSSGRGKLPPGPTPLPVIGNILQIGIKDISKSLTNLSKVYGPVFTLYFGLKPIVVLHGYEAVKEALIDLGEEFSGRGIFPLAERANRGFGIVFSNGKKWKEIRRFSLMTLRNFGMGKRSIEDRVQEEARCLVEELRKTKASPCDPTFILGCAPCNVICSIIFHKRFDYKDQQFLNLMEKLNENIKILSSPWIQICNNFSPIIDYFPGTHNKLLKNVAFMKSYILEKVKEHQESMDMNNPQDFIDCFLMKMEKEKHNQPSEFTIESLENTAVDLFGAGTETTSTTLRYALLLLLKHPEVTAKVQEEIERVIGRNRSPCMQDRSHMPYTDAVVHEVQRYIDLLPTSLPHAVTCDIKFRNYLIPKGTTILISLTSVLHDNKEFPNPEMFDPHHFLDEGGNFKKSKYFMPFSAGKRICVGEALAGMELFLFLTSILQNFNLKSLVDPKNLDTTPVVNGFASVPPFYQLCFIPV
T1 sequence (P08684 whole entry): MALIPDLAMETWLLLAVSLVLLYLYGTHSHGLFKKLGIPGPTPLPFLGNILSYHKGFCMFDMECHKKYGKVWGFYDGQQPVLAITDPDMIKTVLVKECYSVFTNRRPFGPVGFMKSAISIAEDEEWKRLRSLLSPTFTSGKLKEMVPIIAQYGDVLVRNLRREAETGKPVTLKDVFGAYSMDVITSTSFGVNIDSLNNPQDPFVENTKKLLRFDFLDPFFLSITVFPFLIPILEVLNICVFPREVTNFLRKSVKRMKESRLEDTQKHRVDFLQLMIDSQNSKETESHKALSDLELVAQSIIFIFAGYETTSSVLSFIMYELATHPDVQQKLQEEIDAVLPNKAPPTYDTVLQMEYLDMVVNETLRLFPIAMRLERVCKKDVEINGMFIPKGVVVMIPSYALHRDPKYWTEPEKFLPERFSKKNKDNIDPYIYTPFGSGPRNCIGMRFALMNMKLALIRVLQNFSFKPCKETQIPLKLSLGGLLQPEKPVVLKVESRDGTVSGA
T5 sequence (P33261 whole entry): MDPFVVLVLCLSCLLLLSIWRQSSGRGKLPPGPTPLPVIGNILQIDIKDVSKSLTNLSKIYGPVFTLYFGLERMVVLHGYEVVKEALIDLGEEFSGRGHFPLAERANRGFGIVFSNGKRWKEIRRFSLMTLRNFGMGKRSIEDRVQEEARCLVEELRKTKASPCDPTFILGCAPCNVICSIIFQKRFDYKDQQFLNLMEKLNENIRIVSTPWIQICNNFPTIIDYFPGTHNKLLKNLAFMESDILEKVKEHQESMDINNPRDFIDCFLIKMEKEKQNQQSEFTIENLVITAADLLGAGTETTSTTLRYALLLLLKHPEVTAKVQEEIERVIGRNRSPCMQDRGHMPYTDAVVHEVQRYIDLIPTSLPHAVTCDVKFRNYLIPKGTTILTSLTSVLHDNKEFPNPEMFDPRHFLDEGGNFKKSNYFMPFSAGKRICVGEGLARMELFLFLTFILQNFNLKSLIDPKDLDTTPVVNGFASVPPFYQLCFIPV

**Q.** For `COc1cc([C@H]2OC[C@H]3[C@@H]2CO[C@@H]3c2ccc3c(c2)OCO3)cc(OC)c1OC` [aschantin], which “kinact/Ki against CYP3A4” value [1] is on record?
**A.** The value was 8.2e+07 M⁻¹ s⁻¹.

**Q.** What about the “kinact, mechanism-based inhibition of CYP2C9” value [2] of the same molecule?
**A.** The value was 0.044 min⁻¹.

**Q.** And the pKi ([2]; read-out: Ki, mechanism-based inhibition of CYP2C9)?
**A.** Its pKi is 5.43.

**Q.** Which “kinact/Ki against CYP3A4” value [1] does the source give for `CC(C)=CCC/C(C)=C/COc1c2ccoc2cc2oc(=O)ccc12` [bergamottin] here?
**A.** Its value is 3.3e+07 M⁻¹ s⁻¹.

**Q.** For `CC[C@H]1OC(=O)[C@H](C)[C@@H](O[C@H]2C[C@@](C)(OC)[C@@H](O)[C@H](C)O2)[C@H](C)[C@@H](O[C@@H]2O[C@H](C)C[C@H](N(C)C)[C@H]2O)[C@](C)(OC)C[C@@H](C)C(=O)[C@H](C)[C@@H](O)[C@]1(C)O` [clarithromycin], which “kinact/Ki against CYP3A4” value [1] is on record?
**A.** Its value is 1.7e+07 to 2.17e+08 M⁻¹ s⁻¹.

**Q.** With `COc1cc([C@@H]2c3cc4c(cc3C[C@H]3COC(=O)[C@@H]32)OCO4)cc(OC)c1OC` [deoxypodophyllotoxin] as the molecule, how does the pKi ([2]; read-out: Ki, CYP2C9 activity) read?
**A.** Its pKi is 5.46.

**Q.** Which results are given for `COc1cc([C@H]2OC[C@H]3[C@@H]2CO[C@@H]3c2cc(OC)c(OC)c(OC)c2)cc(OC)c1OC` [dimethyllirioresinol]?
**A.** Inhibition of CYP2B6 activity at 100 μM [3]: without inhibition; pIC50 [4]: 4.07 and 4.17; pIC50 [5]: 4.26 and 4.30; Inhibition of CYP1A2 activity at 100 μM [6]: without inhibition; Inhibition of CYP2C9 activity at 100 μM [7]: without inhibition; Inhibition of CYP2D6 activity at 100 μM [8]: without inhibition; Inhibition of CYP3A4 activity at 100 μM [9]: without inhibition; Inhibition of CYP2A6 activity at 100 μM [10]: without inhibition; IC50 value shift of eight CYP enzymes after 30-min pre-incubation [11]: did not cause the IC50 value shift

**Q.** For `COc1ccc([C@@H]2OC[C@H]3[C@@H]2CO[C@@H]3c2cc(OC)c(OC)c(OC)c2)cc1OC` [epimagnolin A], which “Inhibition of CYP2B6 activity at 100 μM” value [3] is on record?
**A.** The value was “negligibly inhibited”.

**Q.** And the “Inhibition of CYP2A6 activity at 100 μM” value [10]?
**A.** The value was “negligibly inhibited”.

**Q.** And the “Inhibition of CYP1A2 activity at 100 μM” value [12]?
**A.** Its value is “negligibly inhibited”.

**Q.** What about the “Inhibition of CYP2C8 activity at 100 μM” value [13] of the same molecule?
**A.** The value was “negligibly inhibited”.

**Q.** What about the “Inhibition of CYP2D6 activity at 100 μM” value [14] of the same molecule?
**A.** Its value is “negligibly inhibited”.

**Q.** And the “Inhibition of CYP3A4 activity at 100 μM” value [15]?
**A.** Its value is “negligibly inhibited”.

**Q.** And the “Inhibition of CYP2C9 activity at 100 μM” value [16]?
**A.** The value was “negligibly inhibited”.

**Q.** And the “Inhibition of CYP2C19 activity at 100 μM” value [17]?
**A.** Its value is “negligibly inhibited”.

**Q.** For `COc1ccc([C@H]2OC[C@H]3[C@@H]2CO[C@@H]3c2ccc(OC)c(OC)c2)cc1OC` [eudesmin], which “Inhibition of CYP2B6 activity at 100 μM” value [3] is on record?
**A.** Its value is “negligibly inhibited”.

**Q.** What about the “Inhibition of CYP1A2 activity at 100 μM” value [6] of the same molecule?
**A.** The value was “negligibly inhibited”.

**Q.** What about the “Inhibition of CYP2C9 activity at 100 μM” value [7] of the same molecule?
**A.** Its value is “negligibly inhibited”.

**Q.** And the “Inhibition of CYP2C19 activity at 100 μM” value [18]?
**A.** Its value is “negligibly inhibited”.

**Q.** What about the “Inhibition of CYP2D6 activity at 100 μM” value [8] of the same molecule?
**A.** Its value is “negligibly inhibited”.

**Q.** What about the “Inhibition of CYP3A4 activity at 100 μM” value [9] of the same molecule?
**A.** Its value is “negligibly inhibited”.

**Q.** And the “Inhibition of CYP2A6 activity at 100 μM” value [10]?
**A.** Its value is “negligibly inhibited”.

**Q.** And the “Inhibition of CYP2C8 activity at 100 μM” value [13]?
**A.** The value was “negligibly inhibited”.

**Q.** What about the “IC50 value shift of eight CYP enzymes after 30-min pre-incubation” value [11] of the same molecule?
**A.** The value was “did not cause the IC50 value shift”.

**Q.** Which “kinact/Ki against CYP3A4” value [1] does the source give for `CNCCC(Oc1ccc(C(F)(F)F)cc1)c1ccccc1` (centres unmarked) [fluoxetine] here?
**A.** Its value is 5.33e+07 M⁻¹ s⁻¹.

**Q.** Which “Inhibition of CYP2B6 activity at 100 μM” value [3] does the source give for `COc1ccc([C@H]2OC[C@H]3[C@@H]2CO[C@@H]3c2cc(OC)c(OC)c(OC)c2)cc1OC` [magnolin] here?
**A.** Its value is “negligibly inhibited”.

**Q.** And the “Inhibition of CYP2A6 activity at 100 μM” value [10]?
**A.** Its value is “negligibly inhibited”.

**Q.** And the “Inhibition of CYP1A2 activity at 100 μM” value [12]?
**A.** The value was “negligibly inhibited”.

**Q.** And the “Inhibition of CYP2C8 activity at 100 μM” value [13]?
**A.** Its value is “negligibly inhibited”.

**Q.** What about the “Inhibition of CYP2D6 activity at 100 μM” value [14] of the same molecule?
**A.** Its value is “negligibly inhibited”.

**Q.** What about the “Inhibition of CYP3A4 activity at 100 μM” value [15] of the same molecule?
**A.** Its value is “negligibly inhibited”.

**Q.** And the “Inhibition of CYP2C9 activity at 100 μM” value [16]?
**A.** Its value is “negligibly inhibited”.

**Q.** And the “Inhibition of CYP2C19 activity at 100 μM” value [17]?
**A.** Its value is “negligibly inhibited”.

**Q.** For `COc1cc([C@@H]2c3cc4c(cc3[C@H](O)[C@H]3COC(=O)[C@H]23)OCO4)cc(OC)c1OC` [podophyllotoxin], which “kinact/Ki against CYP3A4” value [1] is on record?
**A.** The value was 2.272e+08 M⁻¹ s⁻¹.

**Q.** And the pKi ([2]; read-out: Ki, CYP2C9 activity)?
**A.** The pKi was 5.70.

**Q.** For `O=c1c2ccccc2nc2n1CCc1c-2[nH]c2ccccc12` [rutaecarpine], which “kinact/Ki against CYP3A4” value [1] is on record?
**A.** Its value is 5.98e+07 M⁻¹ s⁻¹.

— article PMC5454865 (International Journal of Molecular Sciences, 2017)
